We go through five molecules from patent US4839371A, “3-aralkyl-2-mercaptoyridines as dopamine-β-hydroxylase inhibitors” (SmithKline Beckman Corporation, priority 1987, dated 1989).

Assay [1] has as its target T1, DBH (Bos taurus, UniProt P15101).
T1 sequence (P15101 1-610): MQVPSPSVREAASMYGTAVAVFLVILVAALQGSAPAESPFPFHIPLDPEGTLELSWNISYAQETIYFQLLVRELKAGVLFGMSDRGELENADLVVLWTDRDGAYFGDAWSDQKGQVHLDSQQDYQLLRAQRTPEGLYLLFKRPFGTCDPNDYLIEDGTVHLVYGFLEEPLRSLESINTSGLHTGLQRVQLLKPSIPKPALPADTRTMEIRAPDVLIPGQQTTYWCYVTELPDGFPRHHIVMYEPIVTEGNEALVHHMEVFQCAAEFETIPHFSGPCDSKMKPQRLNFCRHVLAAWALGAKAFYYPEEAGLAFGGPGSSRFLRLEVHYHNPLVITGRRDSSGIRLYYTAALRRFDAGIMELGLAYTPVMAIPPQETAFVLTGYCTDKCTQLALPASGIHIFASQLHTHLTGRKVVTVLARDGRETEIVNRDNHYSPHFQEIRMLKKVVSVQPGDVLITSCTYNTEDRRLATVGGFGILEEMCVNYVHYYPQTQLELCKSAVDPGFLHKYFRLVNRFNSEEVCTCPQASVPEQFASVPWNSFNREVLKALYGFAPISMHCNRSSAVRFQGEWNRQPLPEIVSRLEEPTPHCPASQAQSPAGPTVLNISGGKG
As to the kind of experiment: in vitro DBH inhibition (conversion of tyramine to octopamine, spectrophotometric at 330 nm).

Assay [2] concerns spontaneously hypertensive rats. As to the kind of experiment: mean arterial blood pressure in spontaneously hypertensive rats. It counts as in vivo. As to conditions: 50 mg/kg intraperitoneally. From the text: Maximal blood pressure reduction was approximately 50 to 55 mm Hg.
For assay [3], the system named is DBH. Particulars: cited from earlier work.
[4] abbreviates: patients, Friedman et al., Psychosomatic Med. 40, 107 (1978), significance uncertain.

Read-outs that look alike come from different tables or passages of the source. Some results are limits rather than exact numbers.

In the case of `Fc1cc(F)cc(Cc2cccnc2S)c1`, the IC50 (as a rule, the concentration that inhibits the measured activity by half) against DBH [1] stood at 134 µM. Also, the “blood pressure reduction compared to vehicle-treated controls” value in assay [2] (monitored for 260 minutes) is listed as “significant blood pressure reductions”. In assay [2] (within approximately), the “time after treatment to significant blood pressure reductions” value was not above 30 min.

The molecule `Fc1cccc(Cc2cccnc2S)c1` [3-(3-Fluorobenzyl)-2-mercaptopyridine] returned an IC50 on DBH [1] of 500 µM.

In the case of `C[C@](N)(Cc1ccc(O)c(O)c1)C(=O)O` [alpha-methyl-DOPA], the “lowered DBH levels in treated patients” value in the assay with DBH [3] (setting [4]) is on record as “lowered DBH levels”.

`CC(C)NCC(O)COc1cccc2ccccc12` (stereo not shown) [propranolol]: the “lowered DBH levels in treated patients” value with DBH [3] (human, in vivo) is on record as “not”.

Take `COC(=O)[C@H]1[C@H]2C[C@@H]3c4[nH]c5cc(OC)ccc5c4CCN3C[C@H]2C[C@@H](OC(=O)c2cc(OC)c(OC)c(OC)c2)[C@@H]1OC` [reserpine]: the “lowered DBH levels in treated patients” value in the assay on DBH [3] (setting [4]) is listed as “lowered DBH levels”.
